Several values for one entry are separate records, joined by “and”; a condition that tells them apart may be missing. Equal entries are not always repeated. Toxic doses and inconclusive results are not listed. Rule as the data show it: active = T/C of 150% or more; inactive = T/C below 125%.
System: L1210 leukemia ip in BDF1 mice, survival T/C
Assay: NCI In Vivo Anticancer Drug Screen. Data for tumor model L1210 Leukemia (intraperitoneal) in B6D2F1 (BDF1) mice
Conditions: endpoint: mean survival time, higher = longer survival
Procedure, shortened: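 Ratio derived from survival: compound-dosed mice over vehicle-dosed mice, all bearing a transplantable tumor.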

[1] = dose: 100.0 mg/kg/injection, schedule: Q04DX002 (ip), vehicle: saline with Tween-80
[2] = dose: 200.0 mg/kg/injection, schedule: Q04DX002 (ip), vehicle: saline with Tween-80
[3] = dose: 400.0 mg/kg/injection, schedule: Q04DX002 (ip), vehicle: saline with Tween-80
[4] = dose: 100.0 mg/kg/injection, schedule: Q01DX001 (ip), vehicle: saline
[5] = dose: 200.0 mg/kg/injection, schedule: Q01DX001 (ip), vehicle: saline
[6] = dose: 400.0 mg/kg/injection, schedule: Q01DX001 (ip), vehicle: saline
[7] = dose: 100.0 mg/kg/injection, schedule: Q01DX009 (ip), vehicle: saline with Tween-80
[8] = dose: 200.0 mg/kg/injection, schedule: Q01DX009 (ip), vehicle: saline with Tween-80
[9] = dose: 400.0 mg/kg/injection, schedule: Q01DX009 (ip), vehicle: saline with Tween-80
[10] = dose: 200.0 mg/kg/injection, schedule: Q04DX003 (ip), vehicle: saline with Tween-80
[11] = dose: 400.0 mg/kg/injection, schedule: Q04DX003 (ip), vehicle: saline with Tween-80
[12] = dose: 5.0 mg/kg/injection, schedule: Q01DX001 (ip), vehicle: saline
[13] = dose: 10.0 mg/kg/injection, schedule: Q01DX001 (ip), vehicle: saline
[14] = dose: 20.0 mg/kg/injection, schedule: Q01DX001 (ip), vehicle: saline

Measured: T/C

COc1ccc(-c2cc(=O)c3c(O)cc(O)c(-c4cc(-c5cc(=O)c6c(O)cc(OC)cc6o5)ccc4OC)c3o2)cc1
inactive: dose: 55.0 mg/kg/injection, schedule: Q01DX Z (ip), vehicle: methylcellulose (MC) 98 % of control | dose: 83.0 mg/kg/injection, schedule: Q01DX Z (ip), vehicle: methylcellulose (MC) 92 % of control | dose: 125.0 mg/kg/injection, schedule: Q01DX Z (ip), vehicle: methylcellulose (MC) 93 % of control

c1ccc(-c2ccccn2)nc1
inactive: [1] 107 % of control | [2] 101 % of control | [3] 114 % of control

COc1ccc(NC(=O)NNC(=O)CCCC(=O)NNC(=O)Nc2ccc(OC)cc2)cc1
inactive: dose: 50.0 mg/kg/injection, schedule: Q01DX001 (ip), vehicle: saline 112 % of control | [4] 102 % of control | [5] 93 % of control | [6] 93 % of control

O=C(Nc1ccc(Cl)cc1[N+](=O)[O-])Oc1cc2ccccc2cc1C(=O)Nc1ccccc1
inactive: [7] 100 % of control and 88 % of control | [1] 93 % of control and 94 % of control | [8] 86 % of control and 87 % of control | [2] 94 % of control and 101 % of control | [9] 93 % of control and 96 % of control | [3] 94 % of control and 90 % of control

[B-][NH2+]CC[NH2+][B-]
inactive: [6] 117 % of control

NC1CCC(Cl)CC1 (stereo not given)
inactive: [4] 95 % of control | dose: 100.0 mg/kg/injection, schedule: Q04DX003 (ip), vehicle: saline 99 % of control | [5] 106 % of control | dose: 200.0 mg/kg/injection, schedule: Q04DX003 (ip), vehicle: saline 99 % of control | [6] 92 % of control

CCCOC(C[N+](=O)[O-])C(Cl)(Cl)Cl (stereo not given)
inactive: dose: 6.25 mg/kg/injection, schedule: Q01DX009 (ip), vehicle: saline with Tween-80 91 % of control | dose: 12.5 mg/kg/injection, schedule: Q01DX009 (ip), vehicle: saline with Tween-80 96 % of control | dose: 25.0 mg/kg/injection, schedule: Q01DX009 (ip), vehicle: saline with Tween-80 101 % of control | dose: 25.0 mg/kg/injection, schedule: Q04DX003 (ip), vehicle: saline with Tween-80 104 % of control

CC(=O)OCC1OC(Oc2c(Br)cc(Br)cc2Br)C(OC(C)=O)C(OC(C)=O)C1OC(C)=O (stereo not given)
inactive: dose: 100.0 mg/kg/injection, schedule: Q04DX003 (ip), vehicle: saline with Tween-80 96 % of control | [10] 101 % of control | [11] 95 % of control

CCCCCN(CCCCC)CCCNc1c2c(nc3ccc(OC)cc13)CCCC2
inactive: dose: 2.5 mg/kg/injection, schedule: Q01DX009 (ip), vehicle: saline 100 % of control | [12] 98 % of control | dose: 5.0 mg/kg/injection, schedule: Q01DX009 (ip), vehicle: saline 104 % of control | dose: 9.0 mg/kg/injection, schedule: Q01DX001 (ip), vehicle: saline 94 % of control and 102 % of control | [13] 96 % of control | dose: 10.0 mg/kg/injection, schedule: Q01DX009 (ip), vehicle: saline 98 % of control | dose: 13.0 mg/kg/injection, schedule: Q01DX001 (ip), vehicle: saline 94 % of control | dose: 14.0 mg/kg/injection, schedule: Q01DX001 (ip), vehicle: saline 104 % of control | [14] 93 % of control and 102 % of control (2×) | dose: 20.0 mg/kg/injection, schedule: Q01DX009 (ip), vehicle: saline 100 % of control | dose: 30.0 mg/kg/injection, schedule: Q01DX001 (ip), vehicle: saline 98 % of control

Cc1ccc(C)c(NC(=O)N(Cc2ccccc2)Cc2ccccc2)c1
inactive: dose: 100.0 mg/kg/injection, schedule: Q01DX009 (ip), vehicle: Klucel (hydroxypropylcellulose) (HPC) 94 % of control | dose: 200.0 mg/kg/injection, schedule: Q01DX009 (ip), vehicle: Klucel (hydroxypropylcellulose) (HPC) 91 % of control | dose: 400.0 mg/kg/injection, schedule: Q01DX009 (ip), vehicle: Klucel (hydroxypropylcellulose) (HPC) 96 % of control

O=C(O)CSc1cc(-c2ccc(Cl)cc2)s[s+]1
inactive: dose: 3.12 mg/kg/injection, schedule: Q01DX009 (ip), vehicle: water 98 % of control | dose: 6.25 mg/kg/injection, schedule: Q01DX009 (ip), vehicle: water 97 % of control | dose: 12.5 mg/kg/injection, schedule: Q01DX009 (ip), vehicle: water 96 % of control | dose: 12.5 mg/kg/injection, schedule: Q04DX003 (ip), vehicle: water 94 % of control | dose: 25.0 mg/kg/injection, schedule: Q04DX003 (ip), vehicle: water 93 % of control | dose: 50.0 mg/kg/injection, schedule: Q04DX003 (ip), vehicle: water 86 % of control

CC[n+]1c(C=Nc2ccc(N(C)C)cc2)sc2ccccc21
inactive: dose: 3.13 mg/kg/injection, schedule: Q04DX003 (ip), vehicle: carboxymethylcellulose (CMC) 107 % of control | dose: 6.25 mg/kg/injection, schedule: Q04DX003 (ip), vehicle: carboxymethylcellulose (CMC) 98 % of control | dose: 12.5 mg/kg/injection, schedule: Q04DX002 (ip), vehicle: carboxymethylcellulose (CMC) 104 % of control and 106 % of control | dose: 12.5 mg/kg/injection, schedule: Q04DX003 (ip), vehicle: carboxymethylcellulose (CMC) 96 % of control and 100 % of control | dose: 25.0 mg/kg/injection, schedule: Q04DX002 (ip), vehicle: carboxymethylcellulose (CMC) 109 % of control and 116 % of control

CC1(C)C=C2OC(=O)CCC2(C)CC1 (stereo not given)
inactive: dose: 100.0 mg/kg/injection, schedule: Q01DX001 (ip), vehicle: Klucel (hydroxypropylcellulose) (HPC) 106 % of control | [7] 109 % of control | dose: 200.0 mg/kg/injection, schedule: Q01DX001 (ip), vehicle: Klucel (hydroxypropylcellulose) (HPC) 106 % of control | [8] 112 % of control | dose: 400.0 mg/kg/injection, schedule: Q01DX001 (ip), vehicle: Klucel (hydroxypropylcellulose) (HPC) 96 % of control | [9] 107 % of control

CC(=N\O)/C(=N/O)c1ccc(O)cc1
inactive: [12] 97 % of control | [13] 100 % of control | [14] 97 % of control

CC1(C)CCCC2(C)C1CC(O)C1(CO1)C2CCC(C)(O)C1CO1 (stereo not given)
inactive: dose: 25.0 mg/kg/injection, schedule: Q01DX009 (ip), vehicle: DMSO 92 % of control | dose: 25.0 mg/kg/injection, schedule: Q04DX003 (ip), vehicle: DMSO 88 % of control | dose: 50.0 mg/kg/injection, schedule: Q01DX009 (ip), vehicle: DMSO 96 % of control | dose: 50.0 mg/kg/injection, schedule: Q04DX003 (ip), vehicle: DMSO 93 % of control | dose: 100.0 mg/kg/injection, schedule: Q04DX003 (ip), vehicle: DMSO 97 % of control and 92 % of control

O=c1c2ccccc2ncn1C1OC(CO)C(O)C1O (stereo not given)
inactive: [4] 96 % of control | [5] 102 % of control | [6] 104 % of control

CCC(CCc1ccccn1)C(=O)c1ccccc1 (stereo not given)
inactive: dose: 75.0 mg/kg/injection, schedule: Q01DX001 (ip), vehicle: carboxymethylcellulose (CMC) 100 % of control | dose: 150.0 mg/kg/injection, schedule: Q01DX001 (ip), vehicle: carboxymethylcellulose (CMC) 96 % of control | dose: 300.0 mg/kg/injection, schedule: Q01DX001 (ip), vehicle: carboxymethylcellulose (CMC) 94 % of control

COc1ccc(C2CC(=O)OC(=O)C2)cc1
inactive: dose: 25.6 mg/kg/injection, schedule: Q04DX002 (ip), vehicle: saline with Tween-80 101 % of control | dose: 64.0 mg/kg/injection, schedule: Q04DX002 (ip), vehicle: saline with Tween-80 101 % of control | dose: 160.0 mg/kg/injection, schedule: Q04DX002 (ip), vehicle: saline with Tween-80 101 % of control | [10] 97 % of control | [3] 95 % of control | [11] 92 % of control
